Reference: patent US9932331B2, “Phenyl tetrahydroisoquinoline compound substituted with heteroaryl” (TAISHO PHARMACEUTICAL CO., LTD, priority 2014, dated 2018)
Counter-ions that a name gives are not always drawn.

Biological target: T1, human NHE3 (Homo sapiens, UniProt P48764)
T1 sequence (P48764 26-834): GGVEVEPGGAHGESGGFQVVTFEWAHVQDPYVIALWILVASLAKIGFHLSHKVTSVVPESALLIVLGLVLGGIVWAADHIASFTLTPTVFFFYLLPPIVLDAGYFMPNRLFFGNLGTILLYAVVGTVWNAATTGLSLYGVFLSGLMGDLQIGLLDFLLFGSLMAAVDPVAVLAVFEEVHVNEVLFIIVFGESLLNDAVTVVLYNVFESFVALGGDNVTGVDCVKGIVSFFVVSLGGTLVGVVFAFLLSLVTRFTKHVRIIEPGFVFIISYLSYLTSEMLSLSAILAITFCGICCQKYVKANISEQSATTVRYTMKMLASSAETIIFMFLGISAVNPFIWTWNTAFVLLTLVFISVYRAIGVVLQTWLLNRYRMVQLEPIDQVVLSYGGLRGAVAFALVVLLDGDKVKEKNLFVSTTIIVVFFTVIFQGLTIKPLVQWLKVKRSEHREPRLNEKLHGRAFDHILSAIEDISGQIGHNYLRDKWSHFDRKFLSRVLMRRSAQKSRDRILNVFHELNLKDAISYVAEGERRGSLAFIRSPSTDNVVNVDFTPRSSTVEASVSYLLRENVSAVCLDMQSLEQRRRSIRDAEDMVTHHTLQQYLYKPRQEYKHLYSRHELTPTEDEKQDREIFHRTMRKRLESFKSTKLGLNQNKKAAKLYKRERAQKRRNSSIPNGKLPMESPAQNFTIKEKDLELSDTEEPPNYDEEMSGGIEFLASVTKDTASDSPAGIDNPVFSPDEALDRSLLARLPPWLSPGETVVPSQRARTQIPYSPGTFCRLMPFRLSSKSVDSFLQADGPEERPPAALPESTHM
Test: NHE3 inhibition test (recovery of intracellular pH in cell line stably expressing human NHE3)
Assay type: cell-based
Conditions: OK cells deficient in endogenous NHE stably expressing human NHE3; BCECF fluorescence, initial rate of pH recovery; read-out: human NHE3 inhibitory activity IC50
Experimental: (1) Preparation of Cell Line Deficient in Endogenous NHE
The cell line deficient in endogenous NHE was prepared according to the method of Jacques Pouyssegur et al. (Proc. Natl. Acad. Sci. USA. 1984, Vol. 81, 4833-4837) using opossum kidney (OK) cells (ATCC).
(2) Preparation of Expression Plasmid and Cell Line Stably Expressing Human NHE3
The expression plasmid was constructed by inserting a human NHE3 (SLC9A3, Accession No. NM_004174) cDNA sequence (GeneCopoeia, Inc.) into a pcDNA3.2/V5-DEST vector (Life Technologies Corp.).
The OK cells deficient in endogenous NHE were transfected with the constructed human NHE3 expression plasmid to prepare stably expressing cells. The transfection was carried out by electroporation using a Nucleofector 2b device (Lonza Group Ltd.). A stably expressing cell line was selected in medium supplemented with 500 μg/mL Geneticin (Life Technologies Corp.) and isolated.
NHE3 activity measurement method using cell: The activity was determined by using the NHE3-mediated recovery of intracellular pH occurring after intracellular acidification, as an index. The intracellular pH was measured by a partial modification of the pH-sensitive fluorescent indicator method reported by Tsien et al. (Proc. Natl. Acad. Sci. USA., 1984, 81, 7436-7440).
The cell line stably expressing human NHE3 was inoculated on a poly-D-lysine-coated 96-well plate (Greiner Bio-one) and cultured overnight. […] Then, Hank's balanced salt buffer solution containing 0.25 μM BCECF-AM (Dojindo Laboratories) was added to the cells, which were then incubated at 37° C. for 30 minutes. […] The cells thus incubated in the NH4Cl buffer solution were washed with NH4Cl-free buffer solution (133.8 mM choline chloride, […], 5 mM glucose, 4.7 mM KCl, 1.25 mM CaCl2, 1.25 mM MgCl2, 0.97 mM K2HPO4, 0.23 mM KH2PO4, pH 7.4) to decrease the intracellular pH. After the washing step, 70 μL of a test compound solution prepared with the NH4Cl-free buffer solution was added to the cells, and 70 iμL of sodium ion-containing buffer solution (133.8 mM NaCl, 10 mM HEPES, 5 mM glucose, 4.7 mM KCl, 1.25 mM CaCl2, 1.25 mM MgCl2, 0.97 mM Na2HPO4, 0.23 mM NaH2PO4, pH 7.4) was added thereto in a measurement system FDSS6000 (Hamamatsu Photonics K.K.) to start the recovery of pH. The recovery of intracellular pH was monitored using BCECF fluorescence (excitation wavelength: 480 nm, fluorescence wavelength: 520 to 560 nm), and the initial rate of the pH recovery was plotted. The recovery of pH without test compound was defined as the maximum recovery, and the test compound concentration necessary to inhibit 50% of the maximum recovery was calculated as an IC50 value.

| SMILES | IC50 [nM] |
| --- | --- |
| CN1Cc2c(Cl)cc(Cl)cc2[C@H](c2cccc(-c3cc(NCCOCCOCCNC(=O)Nc4ccc(NC(=O)NCCOCCOCCNc5cc(-c6cccc([C@@H]7CN(C)Cc8c(Cl)cc(Cl)cc87)c6)ncn5)cc4)ncn3)c2)C1 [Example 7-14, 1,1′-Benzene-1,4-diylbis {3-[2-(2-{2-[(6-{3-[(4S)-6,8-dichloro-2-methyl-1,2,3,4-tetrahydroisoquinolin-4-yl]phenyl}pyrimidin-4-yl)amino]ethoxy}ethoxy)ethyl]urea} trifluoroacetate] | 13.9 |
| CN1Cc2c(Cl)cc(Cl)cc2[C@H](c2cccc(-c3nnc(CCOCCOCCNC(=O)NCCCCNC(=O)NCCOCCOCCc4nnc(-c5cccc([C@@H]6CN(C)Cc7c(Cl)cc(Cl)cc76)c5)[nH]4)[nH]3)c2)C1 [Example 7-21, 1,1′-Butane-1,4-diylbis[3-(2-{2-[2-(5-{3-[(4S)-6,8-dichloro-2-methyl-1,2,3,4-tetrahydroisoquinolin-4-yl]phenyl}-4H-1,2,4-triazol-3-yl)ethoxy]ethoxy}ethyl)urea]diformate] | 3.8 |
| CN1Cc2c(Cl)cc(Cl)cc2[C@H](c2cccc(-c3nnc(CCOCCOCCOCCNC(=O)NCCCCNC(=O)NCCOCCOCCOCCc4nnc(-c5cccc([C@@H]6CN(C)Cc7c(Cl)cc(Cl)cc76)c5)[nH]4)[nH]3)c2)C1 [Example 7-22, 1,1′-Butane-1,4-diylbis {3-[2-(2-{2-[2-(5-{3-[(4S)-6,8-dichloro-2-methyl-1,2,3,4-tetrahydroisoquinolin-4-yl]phenyl}-4H-1,2,4-triazol-3-yl)ethoxy]ethoxy}ethoxy)ethyl]urea} diformate] | 5.7 |
| CN1Cc2c(Cl)cc(Cl)cc2[C@H](c2cccc(-c3nnc(CCOCCOCCNC(=O)NCCCCNC(=O)NCCOCCOCCc4nnc(-c5cccc([C@@H]6CN(C)Cc7c(Cl)cc(Cl)cc76)c5)o4)o3)c2)C1 [Example 7-23, 1,1′-Butane-1,4-diylbis[3-(2-{2-[2-(5-{3-[(4S)-6,8-dichloro-2-methyl-1,2,3,4-tetrahydroisoquinolin-4-yl]phenyl}-1,3,4-oxadiazol-2-yl)ethoxy]ethoxy}ethyl)urea]tetraformate] | 5.5 |

More lines, now with the values ahead:

| IC50 [nM] | SMILES |
| --- | --- |
| 12 | CN1Cc2c(Cl)cc(Cl)cc2[C@H](c2cccc(-c3cnnc(NCCOCCOCCNC(=O)NCCCCNC(=O)NCCOCCOCCNc4cc(-c5cccc([C@@H]6CN(C)Cc7c(Cl)cc(Cl)cc76)c5)cnn4)c3)c2)C1 [Example 7-13, 1,1′-Butane-1,4-diylbis {3-[2-(2-(2-{2-[(5-{3-[(4S)-6,8-dichloro-2-methyl-1,2,3,4-tetrahydroisoquinolin-4-yl]phenyl}pyridazin-3-yl)amino]ethoxy}ethoxy)ethyl]urea}tetrahydrochloride] |
| 4.4 | CN1Cc2c(Cl)cc(Cl)cc2[C@H](c2cccc(-c3ccc(NCCOCCOCCOCCNC(=O)NCCCCNC(=O)NCCOCCOCCOCCNc4ccc(-c5cccc([C@@H]6CN(C)Cc7c(Cl)cc(Cl)cc76)c5)cn4)nc3)c2)C1 [Example 7-17, 1,1′-Butane-1,4-diylbis(3-{2-[2-(2-{2-[(5-{3-[(4S)-6,8-dichloro-2-methyl-1,2,3,4-tetrahydroisoquinolin-4-yl]phenyl}pyridin-2-yl)amino]ethoxy}ethoxy)ethoxy]ethyl}urea) hydrochloride] |
| 7.5 | CN1Cc2c(Cl)cc(Cl)cc2[C@H](c2cccc(-c3cncc(NCCOCCOCCNC(=O)NCCCCNC(=O)NCCOCCOCCNc4cncc(-c5cccc([C@@H]6CN(C)Cc7c(Cl)cc(Cl)cc76)c5)n4)n3)c2)C1 [Example 7-20, 1,1′-Butane-1,4-diylbis{3-[2-(2-{2-[(6-{3-[(4S)-6,8-dichloro-2-methyl-1,2,3,4-tetrahydroisoquinolin-4-yl]phenyl}pyrazin-2-yl)amino]ethoxy}ethoxy)ethyl]urea}pentahydrochloride] |
